From patent US4731363A, “Thromboxane synthase inhibitors as insulin lowering agents and antiobesity agents” (priority 1986, dated 1988)

Columns and labels:
TXA2 Synthase = assay: TXA2 synthase IC50 as listed in Table I (enzyme source not stated); assay type: biochemical
Description: Determination of Inhibition of Thromboxane Synthase Activity Isolation of Human Platelet Microsomes
Assay for Thromboxane Synthase
To a 12×75 mm tube containing [1-^14 C] PGH2 (2 μg, 0.01 μCi or 0.05 μCi) and inhibitor (1 mM final assay concentration, in 10 μl of ethanol) in 225 μl of phosphate buffer (0.1M, pH 7.5), was added to an aliquot of guinea pig lung microsomes (25 μl, containing 400 μg protein) or an aliquot of human platelet microsomes (25 μl, containing .congruent.[…] protein). The solution was incubated in a 22° water bath for 2 min.; ether (1 ml) and citric acid (25 μMoles) were added, and the tube plunged into an acetone-dry ice bath. The ether extract was transferred to a 1.0 ml Reacti-vial, and the volume reduced under nitrogen to .congruent.50 μl.
The extract was applied to an I.T.L.C., type SG, glass fiber sheet (Gelman Instrument Co., Ann Arbor, Mich.) and developed in isooctane; methyl ethyl ketone: acetic acid (100:19:1 or 100:9:1) (19). The sheets were air dried and scanned using a Berthold LB 2760 Radiochromatographic Scanner. In certain cases, based on the radiochromatographic profile obtained, the sheets were cut, the appropriate regions placed in scintillation vials, 10 ml of LSC cocktail (Yorktown Research, S. Hackensack, NJ) added, and the relative cpm determined.

[1] = test system: isolated perfused rat pancreas; assay: Insulin secretion by isolated perfused rat pancreas; design: key: insulin AUC ratio: 1st glucose pulse / 2nd pulse with compound; settings: 100 μM; 16.7 mM glucose; control 1.0 ± 0.04 (n = 5)
Description: Determination of Insulin-Secretory Activity in the Isolated Perfused Rat Pancreas
Pancreata were obtained from young adult female Charles River rats weighing from 200-300 g. The animals were anaesthesized with sodium pentobarbitol (45 mg/kg), injected intraperitoneally, and the pancreas with its intact vasculature was removed and connected to an extracorporeal perfusion apparatus.
The basic perfusion solution contained: 133 mM NaCl, 4.4 mM KCl, 2.5 mM MgSO4, 2.4 mM Ca gluconate, 1.5 mM KH2 PO4, 29.4 mM NaHCO3, 4% dextran and 0.2% bovine serum albumin and glucose as discussed below. The perfusion flow rate was kept constant at 4 ml/min. After a 15-20 min equilibration period, the experimental protocol was begun. The pancreatic effluent was collected in either one or four-minute fractions.
The perfusion was run in the following sequence:
30 min 16.7 mM glucose-internal control
30 min 16.7 mM glucose and test compound
5 min 20 mM arginine-to check pancreas viability
Test compounds were dissolved in 90% ethanol to a concentration of 25 mM and then diluted in the perfusion buffer to the desired concentration. The perfusion effluent was collected in one or four min fractions-the samples were checked immediately, aliquoted for submission to radioimmunoassay and stored at -20° C. until the time of assay. The radioimmunoassay of insulin was carried out by a back-titration method using a pure rat insulin standard.
To assess the inhibitory activity of the test compounds, an inhibition index was calculated. The inhibition index is derived by comparing the insulin secretion response from treated versus nontreated pancreas preparations. For each preparation, a ratio of insulin secretion was calculated from the area under the insulin secretion curve of the first pulse of 16.7 mM glucose divided by the area under the curve of the second pulse of 16.7 mM glucose containing compound.

obese Zucker rats = assay: Antiobesity activity in vivo in obese Zucker rats; design: species or system rat; settings: 16 to 18 days; for Body Weight Gain: treated minus control
Description: Determination of Antiobesity Activity
Thromboxane synthase inhibitors were evaluated for antiobesity activity in vivo. Body weight, food intake and circulating insulin levels were monitored during periods of drug treatment. Analysis of carcass composition was performed at study termination.
Animals, Diets and Drug Administration
Lean and obese male and female Zucker rats bred at Hoffmann-La Roche Inc. (Nutley, NJ) were kept in wire-bottomed individual cages in light (12 hr dark and light cycles beginning at 6 p.m. and 6 a.m., respectively) and temperature-controlled (22°) rooms. All rats were fed chow diet (Ralston Purina Co., St. Louis, MO) ad libitum until one to three weeks before the start of drug treatment, at which time they were trained to consume a high glucose low fat (1% corn oil) diet which is herein referred to as G-70:1% CO. Following the one to three-week training period on G-70:1% CO, the average daily food intake was calculated, and the rats were weighed and divided into groups of four to seven rats each.
The control animals continued to eat the G-70:1% CO diet ad libitum, and the experimental groups were given G-70:1% CO diet containing drug (also fed ad libitum). The amount of drug added to the diet of each experimental group was based on calculations of food consumed per kg body weight using data collected at the end of the training period. […] The period of drug treatment ranged from 16 to 18 days as noted in the legends to the tables and graph. Food intake and body weight were recorded either daily or twice a week throughout the duration of the study. The amount of drug administered was calculated from the food intake per kg body weight for each experimental group. Body weight data are reported as the difference between the body weight gains of control and drug-treated animals. Food intake and insulin data are reported as percent of control.
^a Average duration of treatment was 16 to 18 days.
^b Body weight gain was computed by taking the difference between the
weight gain of treated and control rats.

## CC(=O)c1ccc(-n2ccnc2)cc1 [1-[4-(1H--imidazol-1-yl)phenyl]ethanone, 1-[4-(1H-imidazol-1-yl)phenyl]ethanone]
TXA2 Synthase
  IC50: 10 µM
[1]
  Insulin Secretion Inhibition Index: 2
Obese Zucker rats; 60 mg/kg in diet, P ≤ 0.05
  Food Consumption: 82 ± 3 % of control
  Body Weight Gain: -25 g
Obese Zucker rats; 60 mg/kg in diet, not marked significant
  Insulin: 66 ± 16 % of control
Obese Zucker rats; 87 mg/kg in diet, P ≤ 0.05
  Food Consumption: 84 ± 1 % of control
  Insulin: 32 ± 5 % of control
  Body Weight Gain: -32 g
Obese Zucker rats; 113 mg/kg in diet, P ≤ 0.05
  Food Consumption: 74 ± 1 % of control
  Insulin: 24 ± 1 % of control
  Body Weight Gain: -74 g
